Measurements taken from PubChem BioAssay AID2060892 (Molecular Pharmacology Branch, DTP, NCI, 2025).

Tested on: HOP-62 complex spheroids with HUVEC/MSC, viability
Test: Anticancer human tumor HOP-62 cell line growth inhibition [RAS];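 note: spheroids exposed to agents for seven days before readout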;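 for viability, T/C: 100% = DMSO vehicle control viability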
Conditions: for IC50: curve of first compound; for viability, T/C: stronger effect = lower value
Outline: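 Multi-cell-type spheroids: tumor cells plus HUVEC endothelial cells and mesenchymal stem cells. RAS-pathway inhibitors were combined with targeted agents, each dosed in half-log steps down from clinical Cmax, or from 10 microM when Cmax was unknown.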

[1] = second compound 0.0316 µM, first compound 0.0316 µM
[2] = second compound 0.0316 µM, first compound 0.1 µM
[3] = second compound 0.0316 µM, first compound 0.316 µM
[4] = second compound 0.0316 µM, first compound 1 µM
[5] = second compound 0.1 µM, first compound 0.0316 µM
[6] = second compound 0.1 µM, first compound 0.1 µM
[7] = second compound 0.1 µM, first compound 0.316 µM
[8] = second compound 0.1 µM, first compound 1 µM
[9] = second compound 0.316 µM, first compound 0.0316 µM
[10] = second compound 0.316 µM, first compound 0.1 µM
[11] = second compound 0.316 µM, first compound 0.316 µM
[12] = second compound 0.316 µM, first compound 1 µM
[13] = second compound 1 µM, first compound 0.0316 µM
[14] = second compound 1 µM, first compound 0.1 µM
[15] = second compound 1 µM, first compound 0.316 µM
[16] = second compound 1 µM, first compound 1 µM
[17] = second compound 3.16 µM, first compound 0.0316 µM
[18] = second compound 3.16 µM, first compound 0.1 µM
[19] = second compound 3.16 µM, first compound 0.316 µM
[20] = second compound 3.16 µM, first compound 1 µM
[21] = second compound 10 µM, first compound 0.0316 µM
[22] = second compound 10 µM, first compound 0.1 µM
[23] = second compound 10 µM, first compound 0.316 µM
[24] = second compound 10 µM, first compound 1 µM
[25] = second compound 0.0316 µM, first compound 0.000949 µM
[26] = second compound 0.0316 µM, first compound 0.003 µM
[27] = second compound 0.0316 µM, first compound 0.00949 µM
[28] = second compound 0.0316 µM, first compound 0.03 µM
[29] = second compound 0.0316 µM, first compound 0.0949 µM
[30] = second compound 0.0316 µM, first compound 0.3 µM
[31] = second compound 0.1 µM, first compound 0.000949 µM
[32] = second compound 0.1 µM, first compound 0.003 µM
[33] = second compound 0.1 µM, first compound 0.00949 µM
[34] = second compound 0.1 µM, first compound 0.03 µM
[35] = second compound 0.1 µM, first compound 0.0949 µM
[36] = second compound 0.1 µM, first compound 0.3 µM
[37] = second compound 0.316 µM, first compound 0.000949 µM
[38] = second compound 0.316 µM, first compound 0.003 µM
[39] = second compound 0.316 µM, first compound 0.00949 µM
[40] = second compound 0.316 µM, first compound 0.03 µM
[41] = second compound 0.316 µM, first compound 0.0949 µM
[42] = second compound 0.316 µM, first compound 0.3 µM
[43] = second compound 1 µM, first compound 0.000949 µM
[44] = second compound 1 µM, first compound 0.003 µM
[45] = second compound 1 µM, first compound 0.00949 µM
[46] = second compound 1 µM, first compound 0.03 µM
[47] = second compound 1 µM, first compound 0.0949 µM
[48] = second compound 1 µM, first compound 0.3 µM
[49] = second compound 3.16 µM, first compound 0.000949 µM
[50] = second compound 3.16 µM, first compound 0.003 µM
[51] = second compound 3.16 µM, first compound 0.00949 µM
[52] = second compound 3.16 µM, first compound 0.03 µM
[53] = second compound 3.16 µM, first compound 0.0949 µM
[54] = second compound 3.16 µM, first compound 0.3 µM
[55] = second compound 10 µM, first compound 0.000949 µM
[56] = second compound 10 µM, first compound 0.003 µM
[57] = second compound 10 µM, first compound 0.00949 µM
[58] = second compound 10 µM, first compound 0.03 µM
[59] = second compound 10 µM, first compound 0.0949 µM
[60] = second compound 10 µM, first compound 0.3 µM

C=CC(=O)N1CCN(c2nc(OCC3CCCN3C)nc3c(F)c(-c4nc(N)cc(C)c4C(F)(F)F)c(Cl)cc23)C(C)C1 (stereo not drawn) + C#Cc1c(F)ccc2cc(O)cc(-c3ncc4c(N5CC6CCC(C5)N6)nc(OCC56CCCN5CC(F)C6)nc4c3F)c12
IC50 (second compound 0.0316 µM): > 1000 nM
IC50 (second compound 0.1 µM): > 1000 nM
IC50 (second compound 0.316 µM): > 1000 nM
IC50 (second compound 1 µM): > 1000 nM
IC50 (second compound 3.16 µM): > 1000 nM
IC50 (second compound 10 µM): < 3.16 nM
viability, T/C (second compound 0.0316 µM, first compound 0.00316 µM): 79.5%
viability, T/C (second compound 0.0316 µM, first compound 0.01 µM): 71.2%
viability, T/C [1]: 65.5%
viability, T/C [2]: 68.2%
viability, T/C [3]: 70.6%
viability, T/C [4]: 62.1%
viability, T/C (second compound 0.1 µM, first compound 0.00316 µM): 86.7%
viability, T/C (second compound 0.1 µM, first compound 0.01 µM): 69.3%
viability, T/C [5]: 63.2%
viability, T/C [6]: 64.7%
viability, T/C [7]: 69.1%
viability, T/C [8]: 63%
viability, T/C (second compound 0.316 µM, first compound 0.00316 µM): 81.7%
viability, T/C (second compound 0.316 µM, first compound 0.01 µM): 68.9%
viability, T/C [9]: 62.9%
viability, T/C [10]: 58.5%
viability, T/C [11]: 61.1%
viability, T/C [12]: 61.8%
viability, T/C (second compound 1 µM, first compound 0.00316 µM): 90%
viability, T/C (second compound 1 µM, first compound 0.01 µM): 73.5%
viability, T/C [13]: 63.1%
viability, T/C [14]: 57.9%
viability, T/C [15]: 59.2%
viability, T/C [16]: 58.4%
viability, T/C (second compound 3.16 µM, first compound 0.00316 µM): 72.7%
viability, T/C (second compound 3.16 µM, first compound 0.01 µM): 70.1%
viability, T/C [17]: 57.4%
viability, T/C [18]: 61.1%
viability, T/C [19]: 53.9%
viability, T/C [20]: 50%
viability, T/C (second compound 10 µM, first compound 0.00316 µM): 48%
viability, T/C (second compound 10 µM, first compound 0.01 µM): 49.5%
viability, T/C [21]: 43.4%
viability, T/C [22]: 48.4%
viability, T/C [23]: 43.7%
viability, T/C [24]: 37%

CC(=O)OC12COC1CC(O)C1(C)C(=O)C(O)C3=C(C)C(OC(=O)C(O)C(NC(=O)OC(C)(C)C)c4ccccc4)CC(O)(C(OC(=O)c4ccccc4)C21)C3(C)C (stereo not drawn) + C#Cc1c(F)ccc2cc(O)cc(-c3ncc4c(N5CC6CCC(C5)N6)nc(OCC56CCCN5CC(F)C6)nc4c3F)c12
IC50 (second compound 0.0316 µM): < 31.6 nM
IC50 (second compound 0.1 µM): < 31.6 nM
IC50 (second compound 0.316 µM): < 31.6 nM
IC50 (second compound 1 µM): < 31.6 nM
IC50 (second compound 3.16 µM): < 31.6 nM
IC50 (second compound 10 µM): < 31.6 nM
viability, T/C [1]: 11.7%
viability, T/C [2]: 13.2%
viability, T/C [3]: 14.1%
viability, T/C [4]: 19.5%
viability, T/C (second compound 0.0316 µM, first compound 3.16 µM): 19.5%
viability, T/C (second compound 0.0316 µM, first compound 10 µM): 26.5%
viability, T/C [5]: 14.5%
viability, T/C [6]: 13.9%
viability, T/C [7]: 17.6%
viability, T/C [8]: 17.7%
viability, T/C (second compound 0.1 µM, first compound 3.16 µM): 18.7%
viability, T/C (second compound 0.1 µM, first compound 10 µM): 27.1%
viability, T/C [9]: 12%
viability, T/C [10]: 12.8%
viability, T/C [11]: 16.6%
viability, T/C [12]: 13.6%
viability, T/C (second compound 0.316 µM, first compound 3.16 µM): 18.4%
viability, T/C (second compound 0.316 µM, first compound 10 µM): 23.5%
viability, T/C [13]: 14.7%
viability, T/C [14]: 10.3%
viability, T/C [15]: 13.1%
viability, T/C [16]: 11.6%
viability, T/C (second compound 1 µM, first compound 3.16 µM): 17.1%
viability, T/C (second compound 1 µM, first compound 10 µM): 15.2%
viability, T/C [17]: 9.36%
viability, T/C [18]: 13.4%
viability, T/C [19]: 13.2%
viability, T/C [20]: 14%
viability, T/C (second compound 3.16 µM, first compound 3.16 µM): 17.8%
viability, T/C (second compound 3.16 µM, first compound 10 µM): 17.2%
viability, T/C [21]: 13.1%
viability, T/C [22]: 12%
viability, T/C [23]: 13.8%
viability, T/C [24]: 13.7%
viability, T/C (second compound 10 µM, first compound 3.16 µM): 14.8%
viability, T/C (second compound 10 µM, first compound 10 µM): 21.3%

CC1(C)CCC(Nc2ncc(C(F)(F)F)c(-c3c[nH]c4c(P(C)(C)=O)c(C#N)ccc34)n2)CN1 (stereo not drawn) + C#Cc1c(F)ccc2cc(O)cc(-c3ncc4c(N5CC6CCC(C5)N6)nc(OCC56CCCN5CC(F)C6)nc4c3F)c12
IC50 (second compound 0.0316 µM): 2.01 nM
IC50 (second compound 0.1 µM): 1.73 nM
IC50 (second compound 0.316 µM): 2.05 nM
IC50 (second compound 1 µM): 1.8 nM
IC50 (second compound 3.16 µM): 1.33 nM
IC50 (second compound 10 µM): < 0.949 nM
viability, T/C [25]: 76.3%
viability, T/C [26]: 35.9%
viability, T/C [27]: 22.1%
viability, T/C [28]: 24.1%
viability, T/C [29]: 27.6%
viability, T/C [30]: 25.8%
viability, T/C [31]: 72.1%
viability, T/C [32]: 30.1%
viability, T/C [33]: 23.6%
viability, T/C [34]: 24%
viability, T/C [35]: 25.8%
viability, T/C [36]: 28.5%
viability, T/C [37]: 73.2%
viability, T/C [38]: 38.5%
viability, T/C [39]: 21%
viability, T/C [40]: 21.6%
viability, T/C [41]: 26%
viability, T/C [42]: 29.3%
viability, T/C [43]: 75.3%
viability, T/C [44]: 29.9%
viability, T/C [45]: 23.4%
viability, T/C [46]: 25%
viability, T/C [47]: 26%
viability, T/C [48]: 25.2%
viability, T/C [49]: 57.4%
viability, T/C [50]: 32.1%
viability, T/C [51]: 26.4%
viability, T/C [52]: 24.7%
viability, T/C [53]: 27.8%
viability, T/C [54]: 26.4%
viability, T/C [55]: 47.8%
viability, T/C [56]: 30.8%
viability, T/C [57]: 29.3%
viability, T/C [58]: 28.3%
viability, T/C [59]: 31%
viability, T/C [60]: 33.9%

CCc1c2c(nc3ccc(O)cc13)-c1cc3c(c(=O)n1C2)COC(=O)[C@]3(O)CC + C#Cc1c(F)ccc2cc(O)cc(-c3ncc4c(N5CC6CCC(C5)N6)nc(OCC56CCCN5CC(F)C6)nc4c3F)c12
IC50 (second compound 0.0316 µM): 1.14 nM
IC50 (second compound 0.1 µM): 1.31 nM
IC50 (second compound 0.316 µM): 1.19 nM
IC50 (second compound 1 µM): 1.23 nM
IC50 (second compound 3.16 µM): 0.972 nM
IC50 (second compound 10 µM): < 0.949 nM
viability, T/C [25]: 56.3%
viability, T/C [26]: 16.6%
viability, T/C [27]: 11.4%
viability, T/C [28]: 5.6%
viability, T/C [29]: 3.66%
viability, T/C [30]: 2.78%
viability, T/C [31]: 62.9%
viability, T/C [32]: 15.6%
viability, T/C [33]: 10.1%
viability, T/C [34]: 4.19%
viability, T/C [35]: 5.31%
viability, T/C [36]: 3.12%
viability, T/C [37]: 59.1%
viability, T/C [38]: 13.8%
viability, T/C [39]: 8.76%
viability, T/C [40]: 5.75%
viability, T/C [41]: 3.69%
viability, T/C [42]: 3.17%
viability, T/C [43]: 60.8%
viability, T/C [44]: 12.7%
viability, T/C [45]: 7.48%
viability, T/C [46]: 3.47%
viability, T/C [47]: 3.07%
viability, T/C [48]: 2.06%
viability, T/C [49]: 51.1%
viability, T/C [50]: 10.9%
viability, T/C [51]: 6.45%
viability, T/C [52]: 3.95%
viability, T/C [53]: 2.84%
viability, T/C [54]: 2.67%
viability, T/C [55]: 26.9%
viability, T/C [56]: 11.7%
viability, T/C [57]: 8.96%
viability, T/C [58]: 4.94%
viability, T/C [59]: 5.28%
viability, T/C [60]: 3.97%
